Results: PMC9516332 (Frontiers in Oncology, 2022)
Like-named read-outs stand apart in the source and are kept apart here.

Experiments:
Test in all cases: Kinase panel profiling at 1 µmol/L (MSA or IMAP), percentage inhibition
Type in all cases: biochemical
[1] = molecular target: panel of 255 wild-type kinases (Homo sapiens, UniProt Q07912); settings: read-out: %-inhibition ACK
[2] = molecular target: panel of 255 wild-type kinases (Homo sapiens, UniProt P78368); settings: read-out: %-inhibition at 1 µmol/L, CK1γ2
[3] = molecular target: panel of 255 wild-type kinases (Homo sapiens, UniProt Q13882); settings: read-out: %-inhibition BRK
[4] = molecular target: T1, panel of 255 wild-type kinases (Homo sapiens, UniProt P41743); settings: read-out: %-inhibition at 1 µmol/L, PKCι
T1 sequence (P41743 1-596): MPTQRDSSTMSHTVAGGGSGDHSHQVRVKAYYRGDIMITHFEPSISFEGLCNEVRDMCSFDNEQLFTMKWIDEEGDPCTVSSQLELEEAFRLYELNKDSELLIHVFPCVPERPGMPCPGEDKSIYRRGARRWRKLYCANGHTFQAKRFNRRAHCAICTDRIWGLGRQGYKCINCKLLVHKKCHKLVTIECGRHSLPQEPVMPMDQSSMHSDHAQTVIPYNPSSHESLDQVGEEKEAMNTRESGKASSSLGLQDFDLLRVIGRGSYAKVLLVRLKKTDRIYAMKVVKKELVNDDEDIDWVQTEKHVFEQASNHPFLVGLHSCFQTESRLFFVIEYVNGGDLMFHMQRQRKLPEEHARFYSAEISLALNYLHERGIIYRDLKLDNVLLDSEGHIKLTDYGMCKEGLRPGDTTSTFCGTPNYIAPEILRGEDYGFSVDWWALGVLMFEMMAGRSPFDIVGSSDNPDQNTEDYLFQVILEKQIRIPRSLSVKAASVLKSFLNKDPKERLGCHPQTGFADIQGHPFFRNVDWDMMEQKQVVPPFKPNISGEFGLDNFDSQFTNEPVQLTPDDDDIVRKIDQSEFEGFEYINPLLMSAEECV

[5] = molecular target: panel of 255 wild-type kinases (Homo sapiens, UniProt O95819); settings: read-out: %-inhibition at 1 µmol/L, HGK
[6] = molecular target: panel of 255 wild-type kinases (Homo sapiens, UniProt P12931); settings: read-out: %-inhibition at 1 µmol/L, SRC
[7] = molecular target: T2, panel of 255 wild-type kinases (Homo sapiens, UniProt Q16832); settings: read-out: %-inhibition at 1 µmol/L, DDR2
T2 sequence (Q16832 22-855): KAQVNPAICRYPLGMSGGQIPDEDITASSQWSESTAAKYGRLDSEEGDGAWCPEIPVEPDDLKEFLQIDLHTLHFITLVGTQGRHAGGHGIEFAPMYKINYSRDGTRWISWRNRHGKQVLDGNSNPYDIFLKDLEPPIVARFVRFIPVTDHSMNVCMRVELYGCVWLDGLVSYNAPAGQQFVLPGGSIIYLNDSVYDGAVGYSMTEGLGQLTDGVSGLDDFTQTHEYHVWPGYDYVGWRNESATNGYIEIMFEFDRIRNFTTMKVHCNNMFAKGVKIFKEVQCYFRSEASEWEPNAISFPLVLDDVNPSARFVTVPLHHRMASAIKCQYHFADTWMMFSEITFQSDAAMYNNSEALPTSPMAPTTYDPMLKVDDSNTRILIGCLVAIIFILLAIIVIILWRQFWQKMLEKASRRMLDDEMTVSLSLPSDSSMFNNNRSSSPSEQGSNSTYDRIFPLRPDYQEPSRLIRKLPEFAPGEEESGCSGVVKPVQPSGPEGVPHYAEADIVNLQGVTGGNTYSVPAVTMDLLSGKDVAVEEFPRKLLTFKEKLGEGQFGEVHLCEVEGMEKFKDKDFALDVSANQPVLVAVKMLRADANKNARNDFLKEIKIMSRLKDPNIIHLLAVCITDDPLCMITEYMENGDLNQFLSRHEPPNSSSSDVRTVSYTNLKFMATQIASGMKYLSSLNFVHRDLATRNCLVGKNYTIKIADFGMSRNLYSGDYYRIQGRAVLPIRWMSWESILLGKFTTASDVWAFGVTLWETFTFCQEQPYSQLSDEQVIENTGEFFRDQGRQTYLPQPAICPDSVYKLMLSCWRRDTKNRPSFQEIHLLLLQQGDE

[8] = molecular target: panel of 255 wild-type kinases (Homo sapiens, UniProt P49841); settings: kinase GSK3β; 1 µmol/L single concentration
[9] = molecular target: panel of 255 wild-type kinases (Homo sapiens, UniProt P29317); settings: read-out: %-inhibition at 1 µmol/L, EPHA2
[10] = molecular target: T3, panel of 255 wild-type kinases (Homo sapiens, UniProt Q92630); settings: read-out: %-inhibition at 1 µmol/L, DYRK2
T3 sequence (Q92630 1-601): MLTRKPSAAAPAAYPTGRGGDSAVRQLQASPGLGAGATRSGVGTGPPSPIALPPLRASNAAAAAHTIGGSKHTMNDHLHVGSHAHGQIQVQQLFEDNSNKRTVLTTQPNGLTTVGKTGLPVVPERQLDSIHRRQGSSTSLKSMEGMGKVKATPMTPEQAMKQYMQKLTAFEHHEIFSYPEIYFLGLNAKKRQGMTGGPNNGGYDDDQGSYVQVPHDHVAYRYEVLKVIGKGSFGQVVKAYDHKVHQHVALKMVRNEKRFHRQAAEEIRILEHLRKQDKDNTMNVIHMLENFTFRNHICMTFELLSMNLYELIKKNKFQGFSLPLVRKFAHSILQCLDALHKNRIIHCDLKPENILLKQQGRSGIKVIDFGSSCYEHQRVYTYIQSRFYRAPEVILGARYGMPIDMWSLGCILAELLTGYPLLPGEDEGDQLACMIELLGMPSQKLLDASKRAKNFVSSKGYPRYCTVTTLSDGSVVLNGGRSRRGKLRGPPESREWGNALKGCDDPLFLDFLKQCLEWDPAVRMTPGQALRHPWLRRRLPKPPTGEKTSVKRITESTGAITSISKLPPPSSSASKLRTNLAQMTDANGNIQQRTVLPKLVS

[11] = molecular target: panel of 255 wild-type kinases (Homo sapiens, UniProt Q9NQU5); settings: read-out: %-inhibition, PAK6
[12] = ACK kinase assay, 1 µmol/L single concentration
[13] = kinase CK1γ2, 1 µmol/L single concentration
[14] = BRK kinase assay, 1 µmol/L single concentration
[15] = kinase PKCι, 1 µmol/L single concentration
[16] = kinase HGK, 1 µmol/L single concentration
[17] = kinase SRC, 1 µmol/L single concentration
[18] = kinase DDR2, 1 µmol/L single concentration
[19] = kinase EPHA2, 1 µmol/L single concentration
[20] = kinase DYRK2, 1 µmol/L single concentration
[21] = PAK6, 1 µmol/L single concentration

SMILES | inhibition at 1 µM [1, 12] | inhibition at 1 µM [2, 13] | inhibition at 1 µM [3, 14] | inhibition at 1 µM [4, 15] | inhibition at 1 µM [5, 16] | inhibition at 1 µM [6, 17] | inhibition at 1 µM [7, 18] | inhibition at 1 µM [8] | inhibition at 1 µM [9, 19] | inhibition at 1 µM [10, 20] | inhibition at 1 µM [11, 21] | also measured
COC(=O)N[C@@H](C)CNc1nccc(-c2cn(C(C)C)nc2-c2cc(Cl)cc(NS(C)(=O)=O)c2F)n1 [encorafenib] | -4.66% | 31% | 25% | -1.18% | 7.59% | -2.16% | -7% | 92% | 9% | 11% | 13% | 
C[C@H](Nc1ncnc2nc[nH]c12)c1cc2cccc(Cl)c2c(=O)n1-c1ccccc1 [duvelisib] | 2.28% | 2.74% | 4.54% | 18% | 2% | -1.74% | 8% | -0.808% | -6.36% | 8% | 3.69% | 
CCN1CCN(c2ccc(Nc3cc(N(C)C(=O)Nc4c(Cl)c(OC)cc(OC)c4Cl)ncn3)cc2)CC1 [infigratinib] | 43% | -12% | 5.46% | -10% | 15% | 37% | 63% | -9% | 0.318% | -3.43% | 10% | 
CNC(=O)c1ccc(-c2cnc3ncc(Cc4ccc5ncccc5c4)n3n2)cc1F [capmatinib] |  |  |  |  |  |  |  |  |  |  |  | inhibition at 1 µM [1]: 1%; inhibition at 1 µM [2]: -10%; inhibition at 1 µM [3]: -0.67%; inhibition at 1 µM [4]: -10%; inhibition at 1 µM [5]: 2.68%; inhibition at 1 µM [6]: -1.77%; inhibition at 1 µM [7]: -1%; inhibition at 1 µM [9]: -1%; inhibition at 1 µM [10]: 8%; inhibition at 1 µM [11]: -34%
FC(F)(F)c1ccc(CNc2ccc(Cc3c[nH]c4ncc(Cl)cc34)cn2)cn1 [pexidartinib] | 12% | -0.864% | 15% | 23% | 24% | 0.371% | 90% | 4.44% | 7.59% | 24% | 0.273% | 
O=C(Nc1cnn2ccc(N3CCC[C@@H]3c3cc(F)ccc3F)nc12)N1CC[C@H](O)C1 [larotrectinib] | 52% | -7% | 4.64% | -6% | 2.53% | -4.39% | 26% | -11% | 0% | 6% | 13% | 
CCc1nc(C(N)=O)c(Nc2ccc(N3CCC(N4CCN(C)CC4)CC3)c(OC)c2)nc1NC1CCOCC1 [gilteritinib] | 90% | 6.55% | 98% | 28% | 96% | 89% | 99% | 4% | 66% | 39% | 22% | 
CCn1c(=O)c(-c2cc(NC(=O)Nc3ccccc3)c(F)cc2Br)cc2cnc(NC)cc21 [ripretinib] | 23% | -2.31% | 36% | 21% | 13% | 71% | 98% | -0.349% | 100% | 4.57% | 1.15% | 
CN1CCN(c2ccc(C(=O)Nc3n[nH]c4ccc(Cc5cc(F)cc(F)c5)cc34)c(NC3CCOCC3)c2)CC1 [entrectinib] |  | 0.857% | 88% | 34% | 7% | 95% | 100% | -1.6% | 37% | 11% | 15% | 
Cn1cnc2c(F)c(Nc3ccc(Br)cc3F)c(C(=O)NOCCO)cc21 [binimetinib] | -4% | -0.416% | 1.08% | 15% | 3.18% | -0.525% | -10% | -1.84% | 9% | 6.52% | 4.75% | 
C[C@H]1Oc2cc(cnc2N)-c2c(nn(C)c2C#N)CN(C)C(=O)c2ccc(F)cc21 [lorlatinib] |  | 2.14% | 63% | 19% | 1% | 28% | 21% | -4.7% | 45% | 4.35% | 14% | 
C=CC(=O)N1CCC([C@@H]2CCNc3c(C(N)=O)c(-c4ccc(Oc5ccccc5)cc4)nn32)CC1 [zanubrutinib] | 11% | -7% | 99% | -8% | 5.63% |  | -3.23% | -9% | -1.86% | 13% | 11% | 
